Source: BindingDB's records for doi:10.1124/jpet.104.081539 (Kyowa Hakko Kogyo, 2005)

Columns and labels:
[1] = biological target: T1, Thromboxane-A synthase (Homo sapiens, UniProt P24557)
T1 sequence (P24557 whole entry): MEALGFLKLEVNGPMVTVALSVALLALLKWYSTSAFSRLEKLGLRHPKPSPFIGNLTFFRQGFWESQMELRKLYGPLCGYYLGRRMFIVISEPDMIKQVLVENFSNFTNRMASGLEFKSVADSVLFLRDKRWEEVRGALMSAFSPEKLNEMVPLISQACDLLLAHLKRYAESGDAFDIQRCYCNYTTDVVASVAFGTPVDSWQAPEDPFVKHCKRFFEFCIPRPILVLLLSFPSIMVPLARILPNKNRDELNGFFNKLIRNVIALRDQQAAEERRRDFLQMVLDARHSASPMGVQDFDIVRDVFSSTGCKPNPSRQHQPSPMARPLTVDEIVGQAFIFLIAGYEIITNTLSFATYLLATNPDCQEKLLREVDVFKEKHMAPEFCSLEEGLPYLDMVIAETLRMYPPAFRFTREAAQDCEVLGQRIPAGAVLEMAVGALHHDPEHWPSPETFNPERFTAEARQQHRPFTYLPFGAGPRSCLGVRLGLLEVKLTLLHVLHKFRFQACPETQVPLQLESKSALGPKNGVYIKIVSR

[2] = biological target: T2, Alpha-2A adrenergic receptor [16-465] (Rattus norvegicus, UniProt P22909)
T2 construct: 16-465
T2 sequence (P22909 whole entry): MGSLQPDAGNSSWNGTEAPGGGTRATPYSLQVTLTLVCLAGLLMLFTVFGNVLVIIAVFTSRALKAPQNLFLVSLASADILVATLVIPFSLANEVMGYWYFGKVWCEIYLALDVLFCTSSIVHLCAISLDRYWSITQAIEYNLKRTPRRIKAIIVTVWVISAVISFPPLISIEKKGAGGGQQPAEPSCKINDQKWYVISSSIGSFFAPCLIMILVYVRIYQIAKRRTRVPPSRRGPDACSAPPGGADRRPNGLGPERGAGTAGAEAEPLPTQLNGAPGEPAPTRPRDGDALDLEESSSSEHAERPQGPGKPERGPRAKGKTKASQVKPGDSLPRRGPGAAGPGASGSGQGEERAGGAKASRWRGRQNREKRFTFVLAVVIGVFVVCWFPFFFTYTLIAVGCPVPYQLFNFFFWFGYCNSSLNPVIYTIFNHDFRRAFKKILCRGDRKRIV

[3] = biological target: T3, Prostaglandin G/H synthase 2 (Homo sapiens, UniProt P35354)
T3 sequence (P35354 whole entry): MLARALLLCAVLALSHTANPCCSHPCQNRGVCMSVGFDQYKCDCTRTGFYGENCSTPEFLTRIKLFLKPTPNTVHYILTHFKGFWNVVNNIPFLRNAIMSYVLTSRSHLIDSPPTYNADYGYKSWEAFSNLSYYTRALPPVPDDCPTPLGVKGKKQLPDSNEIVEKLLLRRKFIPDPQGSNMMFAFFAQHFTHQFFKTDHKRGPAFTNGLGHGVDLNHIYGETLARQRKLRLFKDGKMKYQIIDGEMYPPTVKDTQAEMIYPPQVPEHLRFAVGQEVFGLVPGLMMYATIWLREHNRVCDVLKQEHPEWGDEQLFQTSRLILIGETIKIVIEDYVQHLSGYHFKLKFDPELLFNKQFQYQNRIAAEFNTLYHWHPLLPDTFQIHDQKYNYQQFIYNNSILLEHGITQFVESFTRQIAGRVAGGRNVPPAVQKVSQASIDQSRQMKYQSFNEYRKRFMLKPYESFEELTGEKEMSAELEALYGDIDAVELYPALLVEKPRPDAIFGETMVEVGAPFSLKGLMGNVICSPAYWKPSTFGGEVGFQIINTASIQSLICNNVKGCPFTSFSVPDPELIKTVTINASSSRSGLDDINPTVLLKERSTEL

[4] = biological target: Histamine H2 receptor (Homo sapiens, UniProt P25021)
[5] = biological target: T4, Alpha-1A adrenergic receptor (Rattus norvegicus, UniProt P43140)
T4 sequence (P43140 whole entry): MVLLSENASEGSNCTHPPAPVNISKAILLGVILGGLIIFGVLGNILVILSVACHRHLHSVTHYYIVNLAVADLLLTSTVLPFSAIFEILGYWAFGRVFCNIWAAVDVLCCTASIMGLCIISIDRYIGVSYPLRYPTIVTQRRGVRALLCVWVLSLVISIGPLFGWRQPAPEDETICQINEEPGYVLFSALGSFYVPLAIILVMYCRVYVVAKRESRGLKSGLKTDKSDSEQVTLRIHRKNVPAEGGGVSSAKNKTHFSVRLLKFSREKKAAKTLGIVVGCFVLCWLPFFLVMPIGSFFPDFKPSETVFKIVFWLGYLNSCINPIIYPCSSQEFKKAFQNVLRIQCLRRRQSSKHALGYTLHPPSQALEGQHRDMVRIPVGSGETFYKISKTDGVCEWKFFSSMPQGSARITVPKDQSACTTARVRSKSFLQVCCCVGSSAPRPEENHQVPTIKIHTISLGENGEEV

[6] = biological target: Prostaglandin G/H synthase 1 (Homo sapiens, UniProt P23219)
[7] = biological target: Platelet-activating factor receptor (Homo sapiens, UniProt P25105)
[8] = biological target: Leukotriene B4 receptor 1 (Homo sapiens) (UniProt Q15722)
[9] = biological target: T5, Thromboxane A2 receptor (Homo sapiens, UniProt P21731)
T5 sequence (P21731 whole entry): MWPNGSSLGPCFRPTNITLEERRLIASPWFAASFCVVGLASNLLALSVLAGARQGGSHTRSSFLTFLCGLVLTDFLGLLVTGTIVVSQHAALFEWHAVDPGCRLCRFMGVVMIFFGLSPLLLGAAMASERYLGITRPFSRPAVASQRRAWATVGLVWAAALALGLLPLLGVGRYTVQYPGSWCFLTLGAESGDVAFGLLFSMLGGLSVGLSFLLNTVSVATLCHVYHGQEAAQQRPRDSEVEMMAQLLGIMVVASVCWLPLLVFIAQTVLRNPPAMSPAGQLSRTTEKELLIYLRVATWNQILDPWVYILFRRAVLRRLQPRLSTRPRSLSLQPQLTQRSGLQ

Sequence of Leukotriene B4 receptor 1 (Homo sapiens) (Q15722 whole entry, looked up): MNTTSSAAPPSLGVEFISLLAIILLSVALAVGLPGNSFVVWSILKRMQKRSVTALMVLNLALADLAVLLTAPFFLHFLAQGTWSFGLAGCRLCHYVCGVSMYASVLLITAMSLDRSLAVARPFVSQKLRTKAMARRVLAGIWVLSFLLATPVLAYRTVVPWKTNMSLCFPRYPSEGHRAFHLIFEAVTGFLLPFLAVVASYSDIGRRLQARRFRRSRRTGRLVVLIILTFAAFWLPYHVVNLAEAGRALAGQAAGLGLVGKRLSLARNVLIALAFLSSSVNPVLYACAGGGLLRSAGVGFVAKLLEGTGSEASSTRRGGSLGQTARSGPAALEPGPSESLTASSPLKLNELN
Sequence of Platelet-activating factor receptor (P25105 whole entry): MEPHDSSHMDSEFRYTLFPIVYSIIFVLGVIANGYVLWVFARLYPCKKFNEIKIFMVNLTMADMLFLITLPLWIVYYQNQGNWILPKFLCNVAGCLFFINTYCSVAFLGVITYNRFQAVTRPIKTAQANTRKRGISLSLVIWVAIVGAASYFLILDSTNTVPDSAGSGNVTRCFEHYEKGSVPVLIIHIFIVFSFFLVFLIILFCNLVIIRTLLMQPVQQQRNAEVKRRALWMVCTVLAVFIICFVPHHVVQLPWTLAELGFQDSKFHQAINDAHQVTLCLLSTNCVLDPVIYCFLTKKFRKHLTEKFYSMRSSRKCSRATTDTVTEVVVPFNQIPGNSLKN
Sequence of Prostaglandin G/H synthase 1 (P23219 whole entry): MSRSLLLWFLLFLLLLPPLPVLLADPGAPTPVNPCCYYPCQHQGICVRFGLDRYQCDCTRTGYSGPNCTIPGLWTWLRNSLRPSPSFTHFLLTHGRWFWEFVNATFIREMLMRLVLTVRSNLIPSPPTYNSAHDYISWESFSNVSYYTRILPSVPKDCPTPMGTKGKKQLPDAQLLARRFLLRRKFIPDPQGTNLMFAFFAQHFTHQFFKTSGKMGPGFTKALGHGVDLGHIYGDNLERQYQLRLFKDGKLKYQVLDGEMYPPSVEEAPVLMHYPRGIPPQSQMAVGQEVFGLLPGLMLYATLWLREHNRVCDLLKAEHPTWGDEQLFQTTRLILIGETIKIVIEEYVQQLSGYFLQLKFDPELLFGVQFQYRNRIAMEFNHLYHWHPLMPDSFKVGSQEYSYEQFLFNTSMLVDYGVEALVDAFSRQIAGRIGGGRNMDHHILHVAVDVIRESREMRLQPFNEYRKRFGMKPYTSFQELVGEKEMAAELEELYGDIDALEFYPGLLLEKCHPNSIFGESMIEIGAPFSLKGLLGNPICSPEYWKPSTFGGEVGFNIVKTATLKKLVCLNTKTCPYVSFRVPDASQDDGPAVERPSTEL
Sequence of Histamine H2 receptor (P25021 whole entry): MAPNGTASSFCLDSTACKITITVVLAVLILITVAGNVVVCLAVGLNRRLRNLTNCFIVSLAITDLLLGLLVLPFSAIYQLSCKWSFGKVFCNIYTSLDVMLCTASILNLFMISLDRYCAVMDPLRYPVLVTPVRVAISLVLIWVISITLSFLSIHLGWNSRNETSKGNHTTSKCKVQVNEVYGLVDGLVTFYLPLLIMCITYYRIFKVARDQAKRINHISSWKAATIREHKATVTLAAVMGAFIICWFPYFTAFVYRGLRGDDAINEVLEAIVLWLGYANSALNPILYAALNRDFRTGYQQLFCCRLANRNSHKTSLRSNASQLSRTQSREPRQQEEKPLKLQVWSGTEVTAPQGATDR

| Ki [1] | Ki [2] | Ki [3] | Ki [4] | Ki [5] | Ki [6] | Ki [7] | Ki [8] | Ki [9] | Structure (SMILES) |
| --- | --- | --- | --- | --- | --- | --- | --- | --- | --- |
| > 1 µM | > 1 µM | > 1 µM | > 1 µM | > 1 µM | > 1 µM | > 1 µM | > 1 µM | > 1 µM | CC1CC(N(C(=O)C2CC2)c2ccccc2)c2ccccc2N1C(=O)c1ccccc1 (configuration not stated) [K604] |
| > 1 µM | > 1 µM | > 1 µM | > 1 µM | > 1 µM | > 1 µM | > 1 µM | > 1 µM | > 1 µM | CCC(=O)N1c2ccccc2C(N(C(C)=O)c2ccccc2)CC1C (configuration not stated) [K376] |
| > 1 µM | > 1 µM | > 1 µM | > 1 µM | > 1 µM | > 1 µM | > 1 µM | > 1 µM | > 1 µM | CC(C)C(=O)N(c1ccccc1)C1CC(C)N(C(=O)c2ccccc2)c2ccccc21 (configuration not stated) [K117] |
